# How the values were obtained:
# Format in all cases: in vivo
# Details in all cases: 14 days after application
# [1] = system: soybean (Glycine max L., var. Pella 86, SOY); assay: Pre-emerge greenhouse screening, crop safety (phytotoxicity rating)
# Text: (§1) A standard greenhouse herbicide activity screening system was used to evaluate the herbicidal efficacy and crop safety of these test compounds. Seven broadleaf weed species including redroot pigweed (Amaranthus retroflexus, AMARE), velvetleaf (Abutilon theophrasti, ABUTH), sicklepod (Cassia obtusifolia, CASOB), ivyleaf morningglory (Ipomoea hederacea, IPOHE), lambsquarters (Chenopodium album, CHEAL), common ragweed (Ambrosia artemisiifolia L., AMBEL), and cocklebur (Xanthium strumarium, XANST) were used as test species. Four grass weed species including green foxtail (Setaria viridis, SETVI), barnyardgrass (Echinochloa crus-galli, ECHCG), johnsongrass (Sorghum halepense, SORHA), and large crabgrass (Digitaria sanguinalis, DIGSA) were also used. In addition, three crop species, field corn (Zea mays L., var. Dekalb 535, CORN), soybean (Glycine max L., var. Pella 86, SOY), and upland rice (Oryza sp., var.Tebonnet, RICE) were included.
# (§2) All plants were grown in 10 cm square plastic pots which were filled with a sandy loam soil mix. For pre-emerge tests, seeds were planted one day prior to application of the test compounds. For post-emerge tests, seeds were planted 8-21 days prior to the test to allow emergence and good foliage development prior to application of the test substances. At the time of the post-emerge application, plants of all species were usually at the 2-3 leaf stage of development.
# (§3) All test compounds were dissolved in acetone and applied to the test units in a volume of 187 1/ha. Test materials were applied at rates ranging from 15 g ai/ha to 1000 g ai/ha using a track sprayer equipped with a TJ8001E even flow flat fan spray nozzle. Plants were arranged on a shelf so that the top of the canopy (post-emerge) or top of the soil surface (pre-emerge) was 40-45 cm below the nozzle. Pressurized air was used to force the test solution through the nozzle as it was mechanically advanced (via electrically driven chain drive) over the top of all test plants/pots. This application simulates a typical commercial field herbicide application.
# (§4) In the post-emerge test, a commercial non-ionic surfactant was also included (0.25% v/v) to enhance wetting of the leaf surfaces of target plants. Immediately after application, test units of the pre-emerge applications were watered at the soil surface to incorporate the test materials. Subsequently, these test units were bottom-watered. Post-emerge test units were always bottom-watered.
# (§5) At 14 days after application of the test materials, phytotoxicity ratings were recorded. A rating scale of 0-100 was used as previously described in Research Methods in Weed Science, 2nd edition, B. Truelove, Ed., Southern Weed Science Society, Auburn University, Auburn, Ala., 1977. Briefly, “0” corresponds to no damage and “100” corresponds to complete death of all plants in the test unit. This scale was used both to determine efficacy against weed species and damage to crop species. Herbicide activity data for various compounds of this invention, which are shown by compound No. in Tables I-VI, are shown in Tables VIII-IX.
# [2] = system: field corn (Zea mays L., var. Dekalb 535, CORN); assay: as above
# Text: as §1, §2, §3, §4, §5
# [3] = system: upland rice (Oryza sp., var.Tebonnet, RICE); assay: as above
# Text: as §1, §2, §3, §4, §5
# [4] = system: field corn (Zea mays L., var. Dekalb 535, CORN); assay: Post-emerge greenhouse screening, crop safety / corn selectivity (phytotoxicity rating)
# Text: as §1, §2, §3, §4, §5
# [5] = system: soybean (Glycine max L., var. Pella 86, SOY); assay: Post-emerge greenhouse screening, crop safety (phytotoxicity rating)
# Text: as §1, §2, §3, §4, §5
# [6] = system: upland rice (Oryza sp., var.Tebonnet, RICE); assay: as above
# Text: as §1, §2, §3, §4, §5
# [7] = system: barnyardgrass (Echinochloa crus-galli, ECHCG); assay: Pre-emerge greenhouse herbicide activity screening, phytotoxicity rating
# Text: as §1, §2, §3, §4, §5
# [8] = system: redroot pigweed (Amaranthus retroflexus, AMARE); assay: as above
# Text: as §1, §2, §3, §4, §5
# [9] = system: velvetleaf (Abutilon theophrasti, ABUTH); assay: as above
# Text: as §1, §2, §3, §4, §5
# [10] = system: johnsongrass (Sorghum halepense, SORHA); assay: as above
# Text: as §1, §2, §3, §4, §5
# [11] = system: ivyleaf morningglory (Ipomoea hederacea, IPOHE); assay: as above
# Text: as §1, §2, §3, §4, §5
# [12] = system: common ragweed (Ambrosia artemisiifolia L., AMBEL); assay: as above
# Text: as §1, §2, §3, §4, §5
# [13] = system: green foxtail (Setaria viridis, SETVI); assay: as above
# Text: as §1, §2, §3, §4, §5
# [14] = system: lambsquarters (Chenopodium album, CHEAL); assay: as above
# Text: as §1, §2, §3, §4, §5
# [15] = system: large crabgrass (Digitaria sanguinalis, DIGSA); assay: as above
# Text: as §1, §2, §3, §4, §5
# [16] = system: sicklepod (Cassia obtusifolia, CASOB); assay: as above
# Text: as §1, §2, §3, §4, §5
# [17] = system: barnyardgrass (Echinochloa crus-galli, ECHCG); assay: Post-emerge greenhouse herbicide activity screening, phytotoxicity rating
# Text: as §1, §2, §3, §4, §5
# [18] = system: redroot pigweed (Amaranthus retroflexus, AMARE); assay: as above
# Text: as §1, §2, §3, §4, §5
# [19] = system: velvetleaf (Abutilon theophrasti, ABUTH); assay: as above
# Text: as §1, §2, §3, §4, §5
# [20] = system: johnsongrass (Sorghum halepense, SORHA); assay: as above
# Text: as §1, §2, §3, §4, §5
# [21] = system: ivyleaf morningglory (Ipomoea hederacea, IPOHE); assay: as above
# Text: as §1, §2, §3, §4, §5
# [22] = system: common ragweed (Ambrosia artemisiifolia L., AMBEL); assay: as above
# Text: as §1, §2, §3, §4, §5
# [23] = system: green foxtail (Setaria viridis, SETVI); assay: as above
# Text: as §1, §2, §3, §4, §5
# [24] = system: lambsquarters (Chenopodium album, CHEAL); assay: as above
# Text: as §1, §2, §3, §4, §5
# [25] = system: large crabgrass (Digitaria sanguinalis, DIGSA); assay: as above
# Text: as §1, §2, §3, §4, §5
# [26] = system: sicklepod (Cassia obtusifolia, CASOB); assay: as above
# Text: as §1, §2, §3, §4, §5
compound,measurement,setting,value
Cn1c(=S)n(C)c(=O)n(-c2cc(Oc3ccccc3)c(Cl)cc2F)c1=O [Compound 2-16],"SOY crop damage, phytotoxicity rating (0-100 scale)",[1]; 125 g ai/ha,0
same,"SOY crop damage, phytotoxicity rating (0-100 scale)",[1]; 250 g ai/ha,0
same,"CORN crop damage, phytotoxicity rating (0-100 scale)",[2]; 125 g ai/ha,0
same,"CORN crop damage, phytotoxicity rating (0-100 scale)",[2]; 250 g ai/ha,5
same,"RICE crop damage, phytotoxicity rating (0-100 scale)",[3]; 125 g ai/ha,0
same,"RICE crop damage, phytotoxicity rating (0-100 scale)",[3]; 250 g ai/ha,0
same,"CORN crop damage, phytotoxicity rating (0-100 scale)",[4]; 125 g ai/ha,0
same,"CORN crop damage, phytotoxicity rating (0-100 scale)",[4]; 250 g ai/ha,0
same,"SOY crop damage, phytotoxicity rating (0-100 scale)",[5]; 125 g ai/ha,0
same,"SOY crop damage, phytotoxicity rating (0-100 scale)",[5]; 250 g ai/ha,0
same,"RICE crop damage, phytotoxicity rating (0-100 scale)",[6]; 125 g ai/ha,0
same,"RICE crop damage, phytotoxicity rating (0-100 scale)",[6]; 250 g ai/ha,0
same,ECHCG phytotoxicity rating (0-100 scale),[7]; 125 g ai/ha,35
same,ECHCG phytotoxicity rating (0-100 scale),[7]; 250 g ai/ha,60
same,AMARE phytotoxicity rating (0-100 scale),[8]; 125 g ai/ha,99
same,AMARE phytotoxicity rating (0-100 scale),[8]; 250 g ai/ha,100
same,ABUTH phytotoxicity rating (0-100 scale),[9]; 125 g ai/ha,55
same,ABUTH phytotoxicity rating (0-100 scale),[9]; 250 g ai/ha,60
same,SORHA phytotoxicity rating (0-100 scale),[10]; 125 g ai/ha,35
same,SORHA phytotoxicity rating (0-100 scale),[10]; 250 g ai/ha,75
same,IPOHE phytotoxicity rating (0-100 scale),[11]; 125 g ai/ha,0
same,IPOHE phytotoxicity rating (0-100 scale),[11]; 250 g ai/ha,10
same,AMBEL phytotoxicity rating (0-100 scale),[12]; 125 g ai/ha,50
same,AMBEL phytotoxicity rating (0-100 scale),[12]; 250 g ai/ha,55
same,SETVI phytotoxicity rating (0-100 scale),[13]; 125 g ai/ha,60
same,SETVI phytotoxicity rating (0-100 scale),[13]; 250 g ai/ha,95
same,CHEAL phytotoxicity rating (0-100 scale),[14]; 125 g ai/ha,100
same,CHEAL phytotoxicity rating (0-100 scale),[14]; 250 g ai/ha,100
same,DIGSA phytotoxicity rating (0-100 scale),[15]; 125 g ai/ha,75
same,DIGSA phytotoxicity rating (0-100 scale),[15]; 250 g ai/ha,80
same,CASOB phytotoxicity rating (0-100 scale),[16]; 125 g ai/ha,20
same,CASOB phytotoxicity rating (0-100 scale),[16]; 250 g ai/ha,35
same,ECHCG phytotoxicity rating (0-100 scale),[17]; 125 g ai/ha,0
same,ECHCG phytotoxicity rating (0-100 scale),[17]; 250 g ai/ha,35
same,AMARE phytotoxicity rating (0-100 scale),[18]; 125 g ai/ha,80
same,AMARE phytotoxicity rating (0-100 scale),[18]; 250 g ai/ha,80
same,ABUTH phytotoxicity rating (0-100 scale),[19]; 125 g ai/ha,0
same,ABUTH phytotoxicity rating (0-100 scale),[19]; 250 g ai/ha,40
same,SORHA phytotoxicity rating (0-100 scale),[20]; 125 g ai/ha,0
same,SORHA phytotoxicity rating (0-100 scale),[20]; 250 g ai/ha,0
same,IPOHE phytotoxicity rating (0-100 scale),[21]; 125 g ai/ha,0
same,IPOHE phytotoxicity rating (0-100 scale),[21]; 250 g ai/ha,0
same,AMBEL phytotoxicity rating (0-100 scale),[22]; 125 g ai/ha,0
same,AMBEL phytotoxicity rating (0-100 scale),[22]; 250 g ai/ha,0
same,SETVI phytotoxicity rating (0-100 scale),[23]; 125 g ai/ha,50
same,SETVI phytotoxicity rating (0-100 scale),[23]; 250 g ai/ha,50
same,CHEAL phytotoxicity rating (0-100 scale),[24]; 125 g ai/ha,70
same,CHEAL phytotoxicity rating (0-100 scale),[24]; 250 g ai/ha,70
same,DIGSA phytotoxicity rating (0-100 scale),[25]; 125 g ai/ha,0
same,DIGSA phytotoxicity rating (0-100 scale),[25]; 250 g ai/ha,0
same,CASOB phytotoxicity rating (0-100 scale),[26]; 125 g ai/ha,0
same,CASOB phytotoxicity rating (0-100 scale),[26]; 250 g ai/ha,0

# Source: patent publication US6613718B2, “Aryl ether derivatives and processes for their preparation and herbicidal and desiccant compositions containing them” (Ishihara Sangyo Kaisha, Ltd., priority 2001, dated 2003)
